Experiment: Drug level in mouse liver mitochondria
Format: ADME
Conditions: in vivo

For `CC[C@]1(O)C[C@@H]2CN(CCc3c([nH]c4ccccc34)[C@@](C(=O)OC)(c3cc4c(cc3OC)N(C)[C@H]3[C@@](O)(C(=O)OC)[C@H](OC(C)=O)[C@]5(CC)C=CCN6CC[C@]43[C@@H]65)C2)C1` [VINBLASTINE], the Drug uptake was 18.7%.

Reference: ChEMBL document CHEMBL1150210, “Metabolism of the Catharanthus alkaloids: from Streptomyces griseus to monoamine oxidase B” (J Nat Prod, 1992)
